For test [1], the system named is Phanerochaete chrysosporium tyrosine ammonia lyase PcTAL (PAL/TAL enzyme), wild type, SEQ ID NO:1. The test can be described thus: PcTAL substrate test with histidine. Type of test: biochemical. Particulars: 20 mM histidine, 100 mM diethanol amime at pH 9, 1.3 mM 2-mercaptoethanol, 0.1 mM MnCl2. The protocol: The increase of TAL and PAL activities with increasing substrate concentrations followed the typical Michaelis-Menton equation. The kcat of the enzyme was 1.3 S^−1 for tyrosine, and 3.3 S^−1 for phenylalanine. The KM was 44 μM for tyrosine and 161 μM for phenylalanine. The kcat/KM value was slightly higher for tyrosine (3.0 M^−1 S^−1) than for phenylalanine (2.1 M^−1 S^−1), indicating the enzyme's slight preference for tyrosine (PAL/TAL ratio of 0.7). […] The substrate specificity of the PcTAL enzyme is therefore similar to other known fungal PAL/TAL enzymes, such as that from R. glutinis, with dual specificity for tyrosine and phenylalanine.

Test [2] shares this test system. The test can be described thus: Kinetic parameters of the PcTAL enzyme for tyrosine and phenylalanine. The class given is biochemical. The following applies: 45° C., 100 mM CAPS, pH 9.5 buffer. As to the method:
The PAL and TAL activities of the purified enzymes were measured using a spectrophotometer according to Abell et al., [Phenylalanine Ammonia-lyase from Yeast Rhodotorula glutinis,” Methods Enzymol. 142:242-248 (1987)]. The assay for PAL determination was initiated by addition of the enzyme to a 50 mM Tris-HCl (pH 8.5) buffer solution containing 1.0 mM L-phenylalanine. The reaction was followed by monitoring the CA production at λ290 nm and the activity was calculated using a molar extinction coefficient of […]. The assay was run over a 5 min period using an amount of enzyme that produced absorbance changes in the range of 0.0075 to 0.018/min. One unit of activity indicated deamination of 1.0 micro-mol of phenylalanine to CA per minute. The TAL activity was similarly measured using tyrosine, instead of phenylalanine, in the reaction solution. The absorbance of the pHCA produced was followed at λ315 nm and the activity was determined using an extinction coefficient of 10,000 cm^−1 for pHCA. One unit of activity indicated deamination of 1.0 micro-mol of tyrosine to pHCA per minute. Some TAL assays were performed at pH 9.5 or 10.0 in 100 mM CAPS buffer. The TAL activity was measured as described above, except that the extinction coefficient was 16,800 cm^−1 for pHCA.
The TAL assay was typically performed in a 1.5 ml capacity UV grade disposable cuvette (VWR) at 35° C. using a Perkin-Elmer Lamba20 spectrophotometer (Wellesley, Mass.). The reaction (1.0 ml volume) contained the soluble protein sample, 100 mM CAPS pH10 buffer and 10 mM tyrosine and was monitored for 3 minutes at I315 nm. The TAL activity (U/g) was calculated as follows: Total TAL activity (mM/min)=D315 nm/min×[…] divided by pHCA extinction coefficient (M^−1 cm^−1)=D315 nm/min×[…] divided by 16,800 (M^−1 cm^−1). TAL specific activity (U/g)=total TAL activity (mM/min) divided by the amount of protein used in the assay. Gel Electrophoresis
Six grams of cell pellet, from the 10 liter fermentation of DPD5154 was resuspended in 6.0 mL Buffer A (10 mM Tris-HCl, pH 8.0, 200 μM EDTA) containing one EDTA-free protease inhibitor tablet (Roche Biosciences, Palo Alto, Calif.), 1.0 μg/ml Leupeptin, 1.0 μg/ml Pepstatin, 40 μg/ml Bestatin 5.0 mM CA. Cells were lysed by two passes through a French Pressure Cell at 20,000 PSI, and clarified by centrifugation at 12,000×g for 20 minutes. To the clarified supernatant, 1.0% streptomycin sulfate was added, and the suspension was gently mixed for 15 minutes at 4° C. and then clarified by centrifugation at 12,000×g for 20 minutes. The supernatant was heated at 60° C. for 20 min, and centrifuged again at 12,000×g for 20 minutes. […]

Regarding `N[C@@H](Cc1c[nH]cn1)C(=O)O` [histidine], the “acceptance as a substrate” value in test [1] is “did not accept histidine as a substrate”. Usually Km stands for the concentration of substrate that gives half-maximal velocity. Consider `N[C@@H](Cc1ccccc1)C(=O)O` [phenylalanine], for which, in test [2], the Km was 161 µM and the kcat is on record as 3.3 S^−1. On the same counts, the results for `N[C@@H](Cc1ccc(O)cc1)C(=O)O` [tyrosine] are 44 µM and 1.3 S^−1.
